The text below walks through data of patent publication US10273235B2, “Compositions and methods for inhibiting β-lactamase” (LegoChem Biosciences, Inc., priority 2015, dated 2019).

Counter-ions that a name gives are not always drawn. A value given as a limit tells only on which side of the number the result lay.

The target of data set [1] is T1, NDM-1 β-lactamase (class B) (Klebsiella pneumoniae, UniProt C7C422).
T1 construct: MICs of bacterial strains used for extraction of enzymes; endogenous in cells; host or cells: bacterial strain carrying NDM-1 (E. coli according to the earlier reading)
T1 sequence (C7C422 29-270, looked up): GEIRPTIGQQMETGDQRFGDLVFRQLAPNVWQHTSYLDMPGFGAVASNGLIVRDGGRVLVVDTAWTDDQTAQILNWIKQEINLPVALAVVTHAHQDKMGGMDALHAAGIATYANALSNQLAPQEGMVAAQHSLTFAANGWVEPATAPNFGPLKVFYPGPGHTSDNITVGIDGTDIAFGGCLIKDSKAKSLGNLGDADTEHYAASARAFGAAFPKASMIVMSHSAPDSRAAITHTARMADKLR
The data set can be described thus: Inhibitory activity against β-lactamases (nitrocefin), NDM-1. The data set is classed as biochemical. To be noted: 100 μM nitrocefin, 30° C., pH 6.8. On the procedure:
(§1) More diluted stocks were prepared as necessary. Enzyme activity was determined by monitoring the change of absorbance at 492 nm using the characteristic molecular extinction coefficient (Δε492=17,400 M^−1 cm^−1) of nitrocefin by a Shimazu UV-1650PC spectrophotometer. The nitrocefin was purchased from OXOID. Kinetic measurements were run at 30° C. in 10 mM MES[2-(N-morpholino)ethanesulfonic acid]buffer (pH 6.8) or 10 mM MES[2-(N-morpholino)ethanesulfonic acid] buffer (pH 6.8), […] BSA and 50 mM sodium bicarbonate. Reactions were performed in 2.5 mL cuvettes with 100 μM nitrocefin and initiated by adding 1.5 nM to 2.5 nM enzyme. The first 180 s of each reaction was used to measure initial rates. Data were evaluated using Microsoft Excel. Concentration dependent inhibition of enzyme was measured using different concentrations of inhibitors resulting from two-fold dilution series. Reaction progress at every concentration of inhibitor was measured in triplicates. IC50 values were calculated using 4-parameter log fits using XL Fit curve fitting software (www.idbs.com) for Excel using the following equation:
(§2) [formula] where y is the remaining enzyme activity (in %) and x is the corresponding concentration. he fitted IC50 parameter is the relative IC50, and is defined as the concentration giving a response half way between the fitted top (B) and bottom (A) of the curve.

The target of data set [2] is KPC-3 β-lactamase (class A) (Klebsiella pneumoniae, UniProt Q9F663, H272Y). The data set can be described thus: Inhibitory activity against β-lactamases (nitrocefin), KPC-3. In kind it is biochemical, K. pneumoniae. On the procedure:
as §1, §2

Data set [3] concerns K. pneumoniae CL5761. The data set can be described thus: MIC of strain used for extraction of enzymes, K. pneumoniae CL5761 (KPC-3, TEM-216, SHV-5). In kind it is cell-based. To be noted: BLI: 4 ug/mL. On the procedure: MIC90 (μg/mL) is the lowest concentration of an antibiotic that will inhibit the visible growth of 90% of microorganisms after incubation as compared with a control group to which the antibiotic is not treated.
MIC values were measured by the broth microdilution method developed by the Clinical and Laboratory Standards Institute (CLSI) (see CLSI M07-A9, Methods for Dilution Antimicrobial Susceptibility Test for Bacteria that Grow Aerobically; Approved Standard-Ninth Edition (2012): CLSI, Villanova, Pa.). The in vitro antibacterial activity was measured with respect to the following 9 clinical isolates: P. aeruginosa (3 strains); K. pneumoniae (6 strains). The in vitro antibacterial activity of selected compounds was measured with respect to the following 15 clinical isolates: K. pneumoniae (15 strains).

Data set [4] deals with E. coli K0519020. In words: MIC of strain used for extraction of enzymes, E. coli K0519020 (CTX-M-15, TEM-1, OXA-1, AmpC (NC_000913)). The data set is classed as cell-based.
Data set [5] concerns E. aerogenes K9911729. The data set can be described thus: MIC of strain used for extraction of enzymes, E. aerogenes K9911729 (CMY-10, TEM-1, SHV-12, AmpC (DQ478697)). In kind it is cell-based.
In data set [6] the test system is E. coli TOPDXA048. In words: MIC of strain used for extraction of enzymes, E. coli TOPDXA048 (OXA-48, TEM-116, AmpC (NC_000913)). The data set is classed as cell-based.
Data set [7] relates to E. coli ECO200. In words: MIC of strain used for extraction of enzymes, E. coli ECO200 (NDM-1, TEM-1, CTX-M-15, EC (AmpC), OXA-2 type). The data set is classed as cell-based.
Data set [8] addresses T2, CMY-10 β-lactamase (class C) (Klebsiella aerogenes, UniProt Q99QC1).
T2 construct: MICs of bacterial strains used for extraction of enzymes; endogenous in cells
The data set can be described thus: Inhibitory activity against β-lactamases (nitrocefin), CMY-10. The data set is classed as biochemical. On the procedure: as §1, §2

Data set [9] addresses T3, OXA-48 β-lactamase (class D) (Klebsiella pneumoniae, UniProt Q6XEC0).
T3 construct: MICs of bacterial strains used for extraction of enzymes; endogenous in cells; host or cells: bacterial strain carrying OXA-48 (E. coli according to the earlier reading)
In words: Inhibitory activity against β-lactamases (nitrocefin), OXA-48. The data set is classed as biochemical. To be noted: 100 μM nitrocefin, 30° C., pH 6.8. On the procedure:
as §1, §2

A short description of data set [10]: Mouse pharmacokinetics. In kind it is in vivo, ICR mouse. To be noted: IV, 50 mg/kg, plasma. On the procedure: The pharmacokinetics values were evaluated in a mouse model. The test compound (50 mg/kg) was injected into the tail vein of 8 week old ICR mouse, weighing approximately 26-30 g. […] Lab conditions were temperature of 22±3° C. and humidity of 50±20%.

Sequence of KPC-3 β-lactamase (class A) (Q9F663 25-293 H272Y): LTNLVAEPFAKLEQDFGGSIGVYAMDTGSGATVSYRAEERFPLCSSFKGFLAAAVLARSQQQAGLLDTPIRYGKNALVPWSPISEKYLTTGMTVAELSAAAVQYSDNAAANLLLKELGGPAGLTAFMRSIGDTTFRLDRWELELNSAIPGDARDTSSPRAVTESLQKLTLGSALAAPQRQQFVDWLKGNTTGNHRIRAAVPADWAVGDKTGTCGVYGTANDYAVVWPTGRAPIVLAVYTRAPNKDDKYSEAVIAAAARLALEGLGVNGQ
T3 sequence (Q6XEC0 23-265, looked up): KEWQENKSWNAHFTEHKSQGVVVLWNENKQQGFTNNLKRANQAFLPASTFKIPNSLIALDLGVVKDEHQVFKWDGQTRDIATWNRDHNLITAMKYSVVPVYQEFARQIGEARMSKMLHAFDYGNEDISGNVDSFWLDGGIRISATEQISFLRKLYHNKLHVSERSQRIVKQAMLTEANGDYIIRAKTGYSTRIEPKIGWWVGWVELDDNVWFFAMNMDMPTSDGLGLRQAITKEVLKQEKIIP
T2 sequence (Q99QC1 24-382): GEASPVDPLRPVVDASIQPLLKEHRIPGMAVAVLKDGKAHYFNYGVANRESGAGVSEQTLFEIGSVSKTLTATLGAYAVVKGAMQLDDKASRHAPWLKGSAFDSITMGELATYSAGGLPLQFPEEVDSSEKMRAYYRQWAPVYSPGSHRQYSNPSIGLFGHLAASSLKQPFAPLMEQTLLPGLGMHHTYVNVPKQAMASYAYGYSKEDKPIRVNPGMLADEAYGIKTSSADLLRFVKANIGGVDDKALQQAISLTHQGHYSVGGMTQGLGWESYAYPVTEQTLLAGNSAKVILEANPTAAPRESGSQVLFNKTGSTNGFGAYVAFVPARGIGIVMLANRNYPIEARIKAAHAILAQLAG

One may read the IC50 as the concentration needed to halve the response being measured. A low value points to greater potency in that assay. Broadly, the MIC is the least concentration at which growth counts as inhibited. The AUC(0-inf) is total exposure, with the tail of the curve extrapolated. A low value points to less exposure. A word on the Cmax: it is the peak of the concentration-time curve. The Tmax is the time from dosing to the highest level. A word on the clearance: it is the rate of elimination divided by the concentration. By half-life is commonly meant the time in which the quantity being followed falls by half. A higher half-life goes with slow loss. As for `O=C1N2C[C@@H](CC[C@H]2C2=NO[C@]3(CCNC3)C2)N1OS(=O)(=O)O` [Example 17, [(2S,5R)-2-[(5R)-1-oxa-2,7-diazaspiro[4.4]non-2-en-3-yl]-7-oxo-1,6-diazabicyclo[3.2.1]octan-6-yl] hydrogen sulfate], the IC50 is 1190 µM in data set [1], 2.74 µM in [2], 0.185 µM in data set [8] and 29.5 µM in data set [9]. Also, the “MIC of Meropenem with BLI” value is 0.5 µg/mL in [3]; 0.0625 µg/mL in data set [4] (BLI: 4 ug/mL); less than 0.0312 µg/mL in [5] (BLI: 4 ug/mL); less than 0.0312 µg/mL in data set [6] (BLI: 4 ug/mL); less than 0.0312 µg/mL in data set [7] (BLI: 4 ug/mL). In addition, the MIC in data set [3] (Klebsiella pneumoniae, CL5761, read-out: MIC of LCB10-0200 with BLI) is 0.125 µg/mL; in data set [4] (Escherichia coli, K0519020, read-out: MIC of LCB10-0200 with BLI), less than 0.0312 µg/mL; in data set [5] (Klebsiella aerogenes, K9911729, read-out: MIC of LCB10-0200 with BLI), less than 0.0312 µg/mL; in data set [6] (Escherichia coli, TOPDXA048, read-out: MIC of LCB10-0200 with BLI) it was less than 0.0312 µg/mL; in data set [7] (Escherichia coli, ECO200, read-out: MIC of LCB10-0200 with BLI) it was less than 0.0312 µg/mL. In data set [10] (ICR), this molecule gave an AUC(0-inf) of 31000 ± 500 ng·h/mL. In data set [10] (ICR), the concentration peaked (Cmax) at 64.2 ± 3.88 µg/mL. The Tmax in data set [10] (ICR) amounted to 4.8 min. In data set [10] (ICR), this molecule showed a clearance of 27 mL/min/kg. Also, the half-life in [10] (ICR) was 75 ± 9 min. The Vd in [10] (ICR, read-out: Vss) is 1.81 ± 0.14 L/kg. In data set [10], this molecule displayed an AUCnorm of 0.62 ± 0.01 kg·h/L. The “Cmax, norm” value in data set [10] was determined as 1.28 ± 0.08 kg/L.
